# Source: ChEMBL document CHEMBL4373715, “Discovery and Biological Evaluations of Halogenated 2,4-Diphenyl Indeno[1,2-b]pyridinol Derivatives as Potent Topoisomerase IIα-Targeted Chemotherapeutic Agents for Breast Cancer” (J Med Chem, 2019)
# Calls of active or inactive are those of the source. The calls are words filed in the database; no cut-off is given here.
# Legend:
# [1] = Stability in human plasma assessed as parent compound remaining at 1 mM measured after 0.5 hrs by LC-MS/MS analysis; type: ADME, cell-free; settings: read-out: Stability
# [2] = Stability in human plasma assessed as parent compound remaining at 1 mM measured after 0.25 hrs by LC-MS/MS analysis; type: ADME, cell-free; settings: read-out: Stability
# [3] = biological target: T1, DNA topoisomerase 1 (Homo sapiens) (UniProt P11387); test: Inhibition of recombinant human topoisomerase 1-mediated relaxation of supercoiled pBR322 DNA at 100 uM measured after 30 mins by ethidium bromide staining based agarose gel electrophoresis relative to control
# T1 sequence (whole entry): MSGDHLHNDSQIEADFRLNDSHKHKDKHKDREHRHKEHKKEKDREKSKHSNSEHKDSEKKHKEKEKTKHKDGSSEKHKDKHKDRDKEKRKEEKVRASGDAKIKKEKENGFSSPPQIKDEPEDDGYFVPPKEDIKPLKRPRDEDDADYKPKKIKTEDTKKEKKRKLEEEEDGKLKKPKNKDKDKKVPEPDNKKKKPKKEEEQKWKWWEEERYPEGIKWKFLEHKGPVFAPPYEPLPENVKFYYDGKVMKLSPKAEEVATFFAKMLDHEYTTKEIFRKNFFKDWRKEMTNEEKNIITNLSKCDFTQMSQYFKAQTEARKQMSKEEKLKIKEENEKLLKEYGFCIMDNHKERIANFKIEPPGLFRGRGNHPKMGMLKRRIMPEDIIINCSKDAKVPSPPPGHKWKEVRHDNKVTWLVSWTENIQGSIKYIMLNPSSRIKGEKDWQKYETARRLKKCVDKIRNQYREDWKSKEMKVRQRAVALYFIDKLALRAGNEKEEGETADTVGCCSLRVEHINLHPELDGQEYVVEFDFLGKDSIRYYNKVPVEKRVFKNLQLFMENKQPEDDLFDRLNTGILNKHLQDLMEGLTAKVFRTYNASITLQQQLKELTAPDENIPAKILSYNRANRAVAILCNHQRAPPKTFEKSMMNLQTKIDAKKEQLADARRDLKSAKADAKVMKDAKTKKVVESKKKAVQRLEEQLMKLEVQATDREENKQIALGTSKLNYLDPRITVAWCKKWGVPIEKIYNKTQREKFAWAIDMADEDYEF
# [4] = Toxicity in female ICR mouse assessed as physical abnormalities at 50 to 100 mg/kg, iv administered as single dose measured up to 7 days; type: organism-based; settings: in vivo, 168 h
# [5] = biological target: DNA topoisomerase 2-alpha (Homo sapiens) (UniProt P11388); test: Poison activity at recombinant human topoisomerase-2 alpha assessed as stabilization of enzyme-DNA cleavage complex by measuring linear DNA formation at 500 uM using supercoiled pBR322 DNA as substrate after 60 mins by agarose gel electrophoresis method
# DNA topoisomerase 2-alpha (Homo sapiens), sequence (P11388 whole entry): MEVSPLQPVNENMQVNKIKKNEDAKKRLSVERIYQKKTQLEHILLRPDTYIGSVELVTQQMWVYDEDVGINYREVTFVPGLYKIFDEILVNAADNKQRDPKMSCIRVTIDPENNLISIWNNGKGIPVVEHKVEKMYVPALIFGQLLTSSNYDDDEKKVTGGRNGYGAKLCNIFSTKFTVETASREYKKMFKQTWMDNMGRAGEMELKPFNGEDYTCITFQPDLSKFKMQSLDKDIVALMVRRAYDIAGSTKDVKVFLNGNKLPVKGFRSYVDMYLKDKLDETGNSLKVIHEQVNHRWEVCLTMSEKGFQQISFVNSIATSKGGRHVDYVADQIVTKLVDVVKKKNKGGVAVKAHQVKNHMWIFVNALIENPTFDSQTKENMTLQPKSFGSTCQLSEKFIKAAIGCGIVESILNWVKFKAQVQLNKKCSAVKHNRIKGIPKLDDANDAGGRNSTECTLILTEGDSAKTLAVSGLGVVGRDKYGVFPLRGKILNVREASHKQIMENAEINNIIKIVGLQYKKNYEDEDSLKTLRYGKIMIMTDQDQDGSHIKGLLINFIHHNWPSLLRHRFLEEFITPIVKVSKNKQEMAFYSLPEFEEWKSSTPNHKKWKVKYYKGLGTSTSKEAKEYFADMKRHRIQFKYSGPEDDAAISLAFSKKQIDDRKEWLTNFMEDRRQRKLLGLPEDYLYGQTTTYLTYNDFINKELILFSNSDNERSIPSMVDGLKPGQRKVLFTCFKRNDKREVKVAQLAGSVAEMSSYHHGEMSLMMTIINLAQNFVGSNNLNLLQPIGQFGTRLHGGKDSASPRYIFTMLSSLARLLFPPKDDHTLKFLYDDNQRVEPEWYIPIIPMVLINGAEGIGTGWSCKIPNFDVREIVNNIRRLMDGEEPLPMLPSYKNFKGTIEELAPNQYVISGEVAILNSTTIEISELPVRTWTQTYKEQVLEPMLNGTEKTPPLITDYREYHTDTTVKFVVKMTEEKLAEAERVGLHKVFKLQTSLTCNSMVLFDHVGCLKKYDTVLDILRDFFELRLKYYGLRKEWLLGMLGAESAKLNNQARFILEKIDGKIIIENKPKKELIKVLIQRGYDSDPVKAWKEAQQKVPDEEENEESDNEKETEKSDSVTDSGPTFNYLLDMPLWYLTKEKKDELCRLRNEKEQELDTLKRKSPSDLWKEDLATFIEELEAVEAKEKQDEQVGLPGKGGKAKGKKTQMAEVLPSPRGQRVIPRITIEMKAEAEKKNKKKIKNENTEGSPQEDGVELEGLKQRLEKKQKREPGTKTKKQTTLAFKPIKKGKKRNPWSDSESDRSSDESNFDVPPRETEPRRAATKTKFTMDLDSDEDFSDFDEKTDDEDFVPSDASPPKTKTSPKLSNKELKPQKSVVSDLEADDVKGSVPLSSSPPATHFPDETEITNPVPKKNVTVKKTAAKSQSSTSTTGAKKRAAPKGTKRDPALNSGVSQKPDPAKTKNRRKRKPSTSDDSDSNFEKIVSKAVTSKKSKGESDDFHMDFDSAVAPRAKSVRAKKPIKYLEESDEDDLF
# [6] = Protein binding in mouse plasma assessed as unbound fraction at 1 mM measured after 1 hr by LC-MS/MS analysis; type: ADME, cell-free
# MDA-MB-231 = test: Antitumor activity against human MDA-MB-231 cells expressing luciferase xenografted in mouse assessed as reduction in tumor weight at 12 mg/kg, iv administered once daily for 10 days measured 18 days post-last dose by bioluminescent imaging analysis; type: functional, organism-based
# T47D [7] = test: Induction of DNA damage in human T47D cells at 5 to 10 uM measured after 24 hrs by comet assay; type: functional, cell-based
# T47D [8] = test: Induction of apoptosis in human T47D cells assessed as increase in cleaved PARP expression at 10 to 30 uM measured after 24 hrs by Western blot analysis; type: functional, cell-based
# [9] = Half life in Sprague-Dawley rat liver microsomes at 1 mM in presence of NADPH by LC-MS/MS analysis; type: ADME, Microsome
# [10] = Stability in rat plasma assessed as parent compound remaining at 1 mM measured after 2 hrs by LC-MS/MS analysis; type: ADME, cell-free; settings: 1000 µM
# [11] = Toxicity in male ICR mouse assessed as physical abnormalities at 50 to 100 mg/kg, iv administered as single dose measured up to 7 days; type: organism-based; settings: in vivo, 168 h
# [12] = Stability in mouse plasma assessed as parent compound remaining at 1 mM measured immediately by LC-MS/MS analysis; type: ADME, cell-free; settings: read-out: Stability
# T47D [13] = test: Induction of apoptosis in human T47D cells assessed as increase in Bax expression at 10 to 30 uM measured after 24 hrs by Western blot analysis; type: functional, cell-based
# [14] = Half life in human liver microsomes at 1 mM in presence of NADPH by LC-MS/MS analysis; type: ADME, Microsome
# [15] = Toxicity in male ICR mouse assessed as change in body weight at 50 to 100 mg/kg, iv administered as single dose measured daily for 7 days; type: organism-based; settings: in vivo, 168 h
# [16] = Protein binding in human plasma assessed as unbound fraction at 1 mM measured after 1 hr by LC-MS/MS analysis; type: ADME, cell-free
# [17] = Stability in rat plasma assessed as parent compound remaining at 1 mM measured after 0.5 hrs by LC-MS/MS analysis; type: ADME, cell-free; settings: read-out: Stability
# [18] = biological target: DNA topoisomerase 2-alpha (Homo sapiens) (UniProt P11388); test: Inhibition of recombinant human topoisomerase 2alpha-mediated relaxation of supercoiled pBR322 DNA at 20 uM measured after 30 mins by ethidium bromide staining based agarose gel electrophoresis relative to control
# [19] = Stability in human plasma assessed as parent compound remaining at 1 mM measured after 4 hrs by LC-MS/MS analysis; type: ADME, cell-free; settings: read-out: Stability
# [20] = Protein binding in human plasma assessed as unbound fraction at 1 mM measured immediately by LC-MS/MS analysis; type: ADME, cell-free
# [21] = Toxicity in male ICR mouse assessed as mortality at 100 mg/kg, iv administered as single dose measured daily for 7 days (reference value: 0%); type: organism-based; settings: in vivo
# Calf thymus DNA = test: Inhibition of EtBr binding to calf thymus DNA up to 40 uM measured after 30 mins by fluorescence assay; type: nucleic-acid assay; settings: Bos taurus
# [22] = Stability in human plasma assessed as parent compound remaining at 1 mM measured immediately by LC-MS/MS analysis; type: ADME, cell-free; settings: read-out: Stability
# [23] = Stability in rat plasma assessed as parent compound remaining at 1 mM measured after 4 hrs by LC-MS/MS analysis; type: ADME, cell-free; settings: 1000 µM
# [24] = Half life in ICR mouse liver microsomes at 1 mM in presence of NADPH by LC-MS/MS analysis; type: ADME, Microsome
# [25] = Stability in rat plasma assessed as parent compound remaining at 1 mM measured immediately by LC-MS/MS analysis; type: ADME, cell-free; settings: read-out: Stability
# [26] = Stability in mouse plasma assessed as parent compound remaining at 1 mM measured after 1 hr by LC-MS/MS analysis; type: ADME, cell-free; settings: read-out: Stability
# [27] = Stability in rat plasma assessed as parent compound remaining at 1 mM measured after 1 hr by LC-MS/MS analysis; type: ADME, cell-free; settings: read-out: Stability
# HeLa = test: Antiproliferative activity against human HeLa cells measured after 72 hrs by EZ-Cytox assay; type: functional, cell-based
# [28] = Protein binding in rat plasma assessed as unbound fraction at 1 mM measured after 1 hr by LC-MS/MS analysis; type: ADME, cell-free
# [29] = biological target: DNA topoisomerase 2-alpha (Homo sapiens) (UniProt P11388); test: Poison activity at topoisomerase-2 alpha in human T47D cells assessed as stabilization of enzyme-DNA cleavage complex by measuring reduction in topo-2alpha level at 50 uM measured after 2 hrs in presence of etoposide by Western blot analysis; type: cell-based
structure (smiles),measurement,setting,value
Oc1ccc(-c2cc(-c3ccccc3Cl)nc3c2Cc2c(O)cccc2-3)cc1,remaining at 0.5 h,[1],99.3%
same,remaining at 0.25 h,[2],98.7%
same,inhibition,[3],0%
same,Activity,[4],Non-Toxic
same,Activity,[5],Active
same,fraction unbound at 1 h,[6],0.999
same,Activity,MDA-MB-231,Active
same,Activity,T47D [7],Active
same,Activity,T47D [8],Active
same,half-life,[9],26 h
same,Stability,[10],119.6%
same,Activity,[11],Non-Toxic
same,remaining at 0 h,[12],100%
same,Activity,T47D [13],Active
same,half-life,[14],6.53 h
same,Activity,[15],Non-Toxic
same,fraction unbound at 1 h,[16],0.959
same,remaining at 0.5 h,[17],99.8%
same,inhibition,[18],78.9%
same,remaining at 4 h,[19],105%
same,fraction unbound at 0 h,[20],1
same,mortality at 168 h,[21],0%
same,inhibition,Calf thymus DNA,inactive
same,remaining at 0 h,[22],100%
same,Stability,[23],130.4%
same,half-life,[24],2.61 h
same,remaining at 0 h,[25],100%
same,remaining at 1 h,[26],110%
same,remaining at 1 h,[27],111%
same,IC50,HeLa,2460 nM
same,fraction unbound at 1 h,[28],1
same,Activity,[29],Active
